IC50 data for 18 compounds are collected here from US11691962B2 (eXIthera Pharmaceuticals, Inc., priority 2018, dated 2023).

The test concerns the target Factor XIa (Homo sapiens (Human), UniProt P03951). Nature of the test: Factor XIa enzyme inhibition assay (dose response, fluorogenic AMC substrate). The conditions noted are these: read-out: hFXIa IC50. The class given is biochemical. The method, then: • Assay buffer: 20 mM Hepes, pH 7.4; 150 mM NaCl; 0.02% Tween 20 • Compounds: 10 mM stocks in DMSO • Substrate: 20 mM Glp-Pro-Arg-AMC, 25 mg/2.3 mL H2O (store at +4° C.) [Factor XIa, thrombin, and trypsin] • 20 mM Pro-Phe-Arg-AMC (Bachem I-1295), 25 mg/2.2 mL H2O • or Boc-Leu-Gly-Arg-AMC (Bachem I-1105), 25 mg/2.07 mL H2O • (store at +4° C.) [Factor Xa] • Enzyme: Factor XIa; 0.25 μM in 50% glycerol (20 μg/mL) • Trypsin; 0.2 μM in 50% glycerol (4.8 μg/mL) • Thrombin; 0.2 μM in 50% glycerol (7.34 μg/mL) • Factor Xa; 0.2 μM in 50% glycerol (9.2 μg/mL) • These stocks are aliquoted (˜100 μL/aliquot) and stored at −20° C. Methods: • 1. Dilute the substrate to 100 μM in assay buffer (30 μL/6 mL). The enzyme is diluted to 0.5 nM just prior to use (12 μL/6 mL for Factor XIa; 15 μL/6 mL for all of the rest.) • 2. Pipette 50 μL of substrate into each well of the 96 well (12×8) microtiter plate. (Column 1 is used as the 100% activity control and receives no compound, and Column 12 is the blank and receives no enzyme.) Add an additional 46 μL to column 2. • 3. Pipette 4 μL of each compound into the appropriate well in column 2 of the plate (unknowns assayed in triplicate, standard assayed in duplicate). The final compound concentration will be […] of the stock. • 4. Serially two-fold dilute the compound by mixing the sample in column 2, removing 50 μL to the next well (column 3), mix and remove to column 4, etc. until column 11. After mixing column 11, remove 50 μL and discard. • 5. Pipette 50 μL of buffer into column 12. Initiate the reaction by adding 50 μL of enzyme solution to each well of columns 1-11 as rapidly as possible. • 6. Read the plate in a spectrophotometer (SpectraMax) at 30° C., wherein each well is measured every 60 s for 30 min. For Factor Xa assays, each well is measured every 1 min for a total of 60 min. • 7. For Factor XIa assays, the compounds are assayed, in duplicate, at 3 different starting concentrations, 20, 2, and 0.2 μM; 1:10, 1:100, and 1:1000 dilution of 10 mM stock or at 2, 0.2, and 0.02 μM; 1:100, 1:1000, and 1:10,000 dilution of 10 mM stock. Data for each concentration are combined for graphing and data fitting. • 8. Data can be used both for estimation of IC50 and for estimation of Kon.
Potential inhibitors of Factor XIa were evaluated using the following assay.
PyroGlu-Pro-Arg-7-methylaminocourin (AMC), available from CPC Scientific, Inc., is based on the substrate pyro-Glu-Pro-Arg-pNA (S-2366), available from Diapharma Group, Inc. (Columbus, Ohio), wherein the p-nitroanaline group is replaced with 7-methylaminocoumarin (AMC).
The final concentration of the substrate in the assay was 50 μM, and the final concentration of the enzyme was 0.25 nM. Inhibitors were tested by serial dilution over an appropriate range to yield a dose response curve for determination of the inhibitors' IC50 value. The assay mixture was read every minute for 30 minutes in order to generate progress curves. The plates were read in a Spectramax m5 Multimode Plate Reader (Molecular Devices LLC, Sunnyvale, Calif.). Dose response curves were fit to Equation 1 below in which A is the maximum inhibition, B is the minimum inhibition, C is the IC50, and D is the Hill coefficient. Y=[(A−B)/(1+(X/C)^D)]+B (Equation 1)

Molecules are shown by their SMILES.

Factor XIa, sequence (P03951 388-625): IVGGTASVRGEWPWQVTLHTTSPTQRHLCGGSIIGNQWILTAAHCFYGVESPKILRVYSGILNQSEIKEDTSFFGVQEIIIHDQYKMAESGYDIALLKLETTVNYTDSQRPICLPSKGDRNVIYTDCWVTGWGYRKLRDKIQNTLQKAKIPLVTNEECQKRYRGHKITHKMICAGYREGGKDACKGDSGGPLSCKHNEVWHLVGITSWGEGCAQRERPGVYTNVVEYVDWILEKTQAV
Factor XIa, sequence (P03951 19-387 partner): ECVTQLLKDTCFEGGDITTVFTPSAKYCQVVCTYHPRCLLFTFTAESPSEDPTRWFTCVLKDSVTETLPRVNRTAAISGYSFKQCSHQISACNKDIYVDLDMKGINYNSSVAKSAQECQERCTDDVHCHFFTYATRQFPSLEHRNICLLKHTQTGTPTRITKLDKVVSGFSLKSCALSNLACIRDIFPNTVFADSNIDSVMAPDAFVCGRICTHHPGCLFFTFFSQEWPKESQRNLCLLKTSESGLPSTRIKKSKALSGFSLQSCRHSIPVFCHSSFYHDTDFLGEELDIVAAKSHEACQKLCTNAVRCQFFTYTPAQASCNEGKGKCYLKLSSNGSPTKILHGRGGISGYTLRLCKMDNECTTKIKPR

`CC[C@@H](NC(=O)N1C(=O)[C@H](Cc2ccnc(N)c2)[C@H]1C(=O)N(C)c1nccn1C)c1ccc(Cl)cc1C` [Compound 1-118, (2S,3R)-3-((2-aminopyridin-4-yl)methyl)-N2-(1-methyl-1H-imidazol-2-yl)-N1-((R)-1-(4-chloro-2-methylphenyl)propyl)-N2-methyl-4-oxoazetidine-1,2-dicarboxamide]: the IC50 is under 0.01 µM.

With `CC[C@@H](NC(=O)N1C(=O)[C@H](Cc2ccnc(N)c2)[C@H]1C(=O)N(C)c1nccn1C)c1ccc(C)cc1F` [Compound 1-119, (2S,3R)-3-((2-aminopyridin-4-yl)methyl)-N2-(1-methyl-1H-imidazol-2-yl)-N1-((R)-1-(2-fluoro-4-methylphenyl)propyl)-N2-methyl-4-oxoazetidine-1,2-dicarboxamide], the IC50 is under 0.01 µM.

`CC[C@@H](NC(=O)N1C(=O)[C@H](Cc2ccnc(N)c2)[C@H]1C(=O)N(C)c1nccn1C)C1CCCCO1` (stereo partly drawn) [Compound 1-121, (2S,3R)-3-((2-aminopyridin-4-yl)methyl)-N2-(1-methyl-1H-imidazol-2-yl)-N1-((R)-1-(oxan-2-yl)propyl)-N2-methyl-4-oxoazetidine-1,2-dicarboxamide]: the IC50 lay in the range of 0.01 to 0.1 µM.

`CC[C@@H](NC(=O)N1C(=O)[C@H](Cc2ccnc(N)c2)[C@H]1C(=O)N(C)c1nccn1C)C1CCOCC1` [Compound 1-122, (2S,3R)-3-((2-aminopyridin-4-yl)methyl)-N2-(1-methyl-1H-imidazol-2-yl)-N1-((R)-1-(oxan-4-yl)propyl)-N2-methyl-4-oxoazetidine-1,2-dicarboxamide]: the IC50 lay within 0.01 to 0.1 µM.

As to `CC[C@@H](NC(=O)N1C(=O)[C@H](Cc2ccnc(N)c2)[C@H]1C(=O)N(C)c1ccn(C)n1)c1ccc(C)cc1` [Compound 1-124, (2S,3R)-3-((2-aminopyridin-4-yl)methyl)-N2-(1-methyl-1H-pyrazol-3-yl)-N1-((R)-1-(4-methylphenyl)propyl)-N2-methyl-4-oxoazetidine-1,2-dicarboxamide], the IC50 is under 0.01 µM.

Regarding `CC[C@@H](NC(=O)N1C(=O)[C@H](Cc2ccnc(N)c2)[C@H]1C(=O)N(C)c1nccn1C)C1CCCOC1` (stereo partly drawn) [Compound 1-126, (2S,3R)-3-((2-aminopyridin-4-yl)methyl)-N2-(1-methyl-1H-imidazol-2-yl)-N1-((R)-1-(oxan-3-yl)propyl)-N2-methyl-4-oxoazetidine-1,2-dicarboxamide], the IC50 is 0.01 to 0.1 µM.

In the case of `CC[C@@H](NC(=O)N1C(=O)[C@H](Cc2ccnc(N)c2)[C@H]1C(=O)N(C)c1ccn(C)n1)c1ccccc1C` [Compound 1-130, (2S,3R)-3-((2-aminopyridin-4-yl)methyl)-N2-(1-methyl-1H-pyrazol-3-yl)-N1-((R)-1-(2-methylphenyl)propyl)-N2-methyl-4-oxoazetidine-1,2-dicarboxamide], the IC50 was under 0.01 µM.

As to `CC[C@@H](NC(=O)N1C(=O)[C@H](Cc2ccnc(N)c2)[C@H]1C(=O)N(C)C1=NC(=O)CN1C)c1ccccc1` [Compound 1-131, (2S,3R)-3-((2-aminopyridin-4-yl)methyl)-N2-(4-oxo-1-methyl-4,5-dihydro-1H-imidazol-2-yl)-N1-((R)-1-phenylpropyl)-N2-methyl-4-oxoazetidine-1,2-dicarboxamide], the IC50 lay within 0.01 to 0.1 µM.

With `CC[C@@H](NC(=O)N1C(=O)[C@H](Cc2ccnc(N)c2)[C@H]1C(=O)N(C)c1ccn(C)n1)c1cc(C)ccc1C` [Compound 1-132, (2S,3R)-3-((2-aminopyridin-4-yl)methyl)-N2-(1-methyl-1H-pyrazol-3-yl)-N1-((R)-1-(2,5-dimethylphenyl)propyl)-N2-methyl-4-oxoazetidine-1,2-dicarboxamide], the IC50 is under 0.01 µM.

In the case of `CC[C@@H](NC(=O)N1C(=O)[C@H](Cc2ccnc(N)c2)[C@H]1C(=O)N(C)c1ccn(C)n1)c1ccccc1F` [Compound 1-133, (2S,3R)-3-((2-aminopyridin-4-yl)methyl)-N2-(1-methyl-1H-pyrazol-3-yl)-N1-((R)-1-(2-fluorophenyl)propyl)-N2-methyl-4-oxoazetidine-1,2-dicarboxamide], the IC50 is 0.01 to 0.1 µM.

On to `CC[C@@H](NC(=O)N1C(=O)[C@H](Cc2ccnc(N)c2)[C@H]1C(=O)N(C)c1ccn(C)n1)c1cc(F)ccc1C` [Compound 1-135, (2S,3R)-3-((2-aminopyridin-4-yl)methyl)-N2-(1-methyl-1H-pyrazol-3-yl)-N1-((R)-1-(5-fluoro-2-methylphenyl)propyl)-N2-methyl-4-oxoazetidine-1,2-dicarboxamide], for which the IC50 was under 0.01 µM.

For the compound `CC[C@@H](NC(=O)N1C(=O)[C@H](Cc2ccnc(N)c2)[C@H]1C(=O)N(C)c1ccn(C)n1)c1cccc(Cl)c1C` [Compound 1-138, (2S,3R)-3-((2-aminopyridin-4-yl)methyl)-N2-(1-methyl-1H-pyrazol-3-yl)-N1-((R)-1-(3-chloro-2-methylphenyl)propyl)-N2-methyl-4-oxoazetidine-1,2-dicarboxamide], the IC50 was under 0.01 µM.

Consider `CC[C@@H](NC(=O)N1C(=O)[C@H](Cc2cc(C)nc(N)c2)[C@H]1C(=O)N(C)C1=NC(=O)CN1C)c1ccccc1` [Compound 1-139, (2S,3R)-3-((2-amino-6-methylpyridin-4-yl)methyl)-N2-(4-oxo-1-methyl-4,5-dihydro-1H-imidazol-2-yl)-N1-((R)-1-phenylpropyl)-N2-methyl-4-oxoazetidine-1,2-dicarboxamide], for which the IC50 was 0.01 to 0.1 µM.

Take `CC[C@@H](NC(=O)N1C(=O)[C@H](Cc2ccnc(N)c2)[C@H]1C(=O)N(C)c1ccn(C)n1)c1cccc(C)c1C` [Compound 1-140, (2S,3R)-3-((2-aminopyridin-4-yl)methyl)-N2-(1-methyl-1H-pyrazol-3-yl)-N1-((R)-1-(2,3-dimethylphenyl)propyl)-N2-methyl-4-oxoazetidine-1,2-dicarboxamide]: the IC50 is under 0.01 µM.

For `CC[C@@H](NC(=O)N1C(=O)[C@H](Cc2ccnc(N)c2)[C@H]1C(=O)N(C)c1ccn(C)n1)c1cc(Cl)ccc1C` [Compound 1-141, (2S,3R)-3-((2-aminopyridin-4-yl)methyl)-N2-(1-methyl-1H-pyrazol-3-yl)-N1-((R)-1-(5-chloro-2-methylphenyl)propyl)-N2-methyl-4-oxoazetidine-1,2-dicarboxamide], the IC50 was under 0.01 µM.

In the case of `CC[C@@H](NC(=O)N1C(=O)[C@H](Cc2cc(C)nc(N)c2)[C@H]1C(=O)N(C)c1ccn(C)n1)c1ccc(C)cc1` [Compound 1-142, (2S,3R)-3-((2-amino-6-methylpyridin-4-yl)methyl)-N2-(1-methyl-1H-pyrazol-3-yl)-N1-((R)-1-(4-methylphenyl)propyl)-N2-methyl-4-oxoazetidine-1,2-dicarboxamide], the IC50 was under 0.01 µM.

With `CC[C@@H](NC(=O)N1C(=O)[C@H](Cc2cc(C)nc(N)c2)[C@H]1C(=O)N(C)c1ccn(C)n1)c1ccc(C)c(C)c1` [Compound 1-145, (2S,3R)-3-((2-amino-6-methylpyridin-4-yl)methyl)-N2-(1-methyl-1H-pyrazol-3-yl)-N1-((R)-1-(3,4-dimethylphenyl)propyl)-N2-methyl-4-oxoazetidine-1,2-dicarboxamide], the IC50 was under 0.01 µM.

On to `CC[C@@H](NC(=O)N1C(=O)[C@H](Cc2cc(C)nc(N)c2)[C@H]1C(=O)N(C)c1ccn(C)n1)c1ccc(C)c(Cl)c1` [Compound 1-147, (2S,3R)-3-((2-amino-6-methylpyridin-4-yl)methyl)-N2-(1-methyl-1H-pyrazol-3-yl)-N1-((R)-1-(3-chloro-4-methylphenyl)propyl)-N2-methyl-4-oxoazetidine-1,2-dicarboxamide], for which the IC50 is under 0.01 µM.

One may read the IC50 as the concentration that gives 50% inhibition.
